Experimental data as given in the supplement of paper PMC10307832.

How the values were obtained:
Experiment in all cases: relative viability (nuclei count vs DMSO), 5 days (fraction); higher = more cells survive
SW 1573 = details: first compound 20 µM
How it was run: (§1)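 Lung cancer cell lines were seeded in 1536-well plates and dosed by pin tool the next day, with either a single drug or a fixed anchor-drug dose combined with five library-drug doses (not always all listed) spaced in √10 steps. Five days later, one step fixed the cells and stained their nuclei (final 0.05% Triton X-100, 1% formaldehyde, 1 ug/ml Hoechst), and nuclei were counted on 4× images. Relative viability is the nuclei count in treated wells divided by the count in vehicle wells, and each value is the median of duplicate plates.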

HCC-366 = system: HCC-366
How it was run: as §1

NCI-H2085 = system: NCI-H2085
How it was run: as §1

NCI-H2405 = system: NCI-H2405
How it was run: as §1

LCLC-103H = system: LCLC-103H
How it was run: as §1

NCI-H2347 = system: NCI-H2347
How it was run: as §1

NCI-H2009 = system: NCI-H2009
How it was run: as §1

NCI-H1355 = system: NCI-H1355
How it was run: as §1

PC-14 = system: PC-14
How it was run: as §1

NCI-H1793 = system: NCI-H1793
How it was run: as §1

EPLC-272H = system: EPLC-272H
How it was run: as §1

COR-L23 = system: COR-L23
How it was run: as §1

## Cc1csc(=NC2CCCCC2)n1/N=C/c1ccc(O)c(O)c1O [MIM1] + O=C(c1cc(Cc2n[nH]c(=O)c3ccccc23)ccc1F)N1CCN(C(=O)C2CC2)CC1 [Olaparib] (partner 8 µM)
SW 1573
  relative viability: 0.1
HCC-366; first compound 0.2 µM
  relative viability: 0.351
HCC-366; first compound 2 µM
  relative viability: 0.249
HCC-366; first compound 6.325 µM
  relative viability: 0.0373
HCC-366; first compound 20 µM
  relative viability: 0.0269
NCI-H2085; first compound 0.2 µM
  relative viability: 0.768
NCI-H2085; first compound 0.6325 µM
  relative viability: 0.797
NCI-H2085; first compound 2 µM
  relative viability: 0.771
NCI-H2085; first compound 6.325 µM
  relative viability: 0.596
NCI-H2085; first compound 20 µM
  relative viability: 0.641
NCI-H2405; first compound 0.2 µM
  relative viability: 0.881
NCI-H2405; first compound 0.6325 µM
  relative viability: 0.918
NCI-H2405; first compound 2 µM
  relative viability: 0.827
NCI-H2405; first compound 6.325 µM
  relative viability: 0.681
NCI-H2405; first compound 20 µM
  relative viability: 0.369
LCLC-103H; first compound 0.2 µM
  relative viability: 0.814
LCLC-103H; first compound 0.6325 µM
  relative viability: 0.771
LCLC-103H; first compound 2 µM
  relative viability: 0.782
LCLC-103H; first compound 6.325 µM
  relative viability: 0.532
LCLC-103H; first compound 20 µM
  relative viability: 0.336
NCI-H2347; first compound 0.2 µM
  relative viability: 0.525
NCI-H2347; first compound 0.6325 µM
  relative viability: 0.559
NCI-H2347; first compound 2 µM
  relative viability: 0.653
NCI-H2347; first compound 6.325 µM
  relative viability: 0.508
NCI-H2347; first compound 20 µM
  relative viability: 0.469
NCI-H2009; first compound 0.2 µM
  relative viability: 0.662
NCI-H2009; first compound 0.6325 µM
  relative viability: 0.655
NCI-H2009; first compound 2 µM
  relative viability: 0.723
NCI-H2009; first compound 6.325 µM
  relative viability: 0.504
NCI-H2009; first compound 20 µM
  relative viability: 0.482
NCI-H1355; first compound 0.2 µM
  relative viability: 0.731
NCI-H1355; first compound 0.6325 µM
  relative viability: 0.664
NCI-H1355; first compound 2 µM
  relative viability: 0.803
NCI-H1355; first compound 6.325 µM
  relative viability: 0.603
NCI-H1355; first compound 20 µM
  relative viability: 0.297
PC-14; first compound 0.2 µM
  relative viability: 0.276
PC-14; first compound 0.6325 µM
  relative viability: 0.283
PC-14; first compound 2 µM
  relative viability: 0.228
PC-14; first compound 6.325 µM
  relative viability: 0.232
PC-14; first compound 20 µM
  relative viability: 0.0784
NCI-H1793; first compound 0.2 µM
  relative viability: 0.942
NCI-H1793; first compound 2 µM
  relative viability: 0.899
NCI-H1793; first compound 6.325 µM
  relative viability: 0.686
NCI-H1793; first compound 20 µM
  relative viability: 0.839
EPLC-272H; first compound 0.2 µM
  relative viability: 0.664
EPLC-272H; first compound 0.6325 µM
  relative viability: 0.858
EPLC-272H; first compound 2 µM
  relative viability: 0.622
EPLC-272H; first compound 6.325 µM
  relative viability: 0.111
EPLC-272H; first compound 20 µM
  relative viability: 0.108
COR-L23; first compound 0.2 µM
  relative viability: 0.29
COR-L23; first compound 0.6325 µM
  relative viability: 0.365
COR-L23; first compound 2 µM
  relative viability: 0.287
COR-L23; first compound 6.325 µM
  relative viability: 0.224
COR-L23; first compound 20 µM
  relative viability: 0.164
